Results on three compounds are retold here after the NIST ThermoML archive (doi:10.1021/je9004382).

Numbers after ± are expanded uncertainties.

Series [1] in a line: Molar enthalpy of transition or fusion. Conditions: Crystal; Adiabatic calorimetry.
For series [2] the following is noted: Crystal; DTA.

Regarding `COC(=O)C=Cc1ccc(O)cc1` [2-propenoic acid, 3-(4-hydroxyphenyl)-, methyl ester], the “Molar enthalpy of transition or fusion” value in series [1] came out at 7.22 ± 0.43 kcal/mol. Further, the Normal melting temperature in series [2] was 137.56 ± 1.1 °C.

In the case of `COC(=O)/C=C/c1cc(OC)c(O)c(OC)c1` [3,5-dimethoxy-4-hydroxy cinnamic acid methyl ester], the “Molar enthalpy of transition or fusion” value in series [1] was 7.14 ± 0.669 kcal/mol. The Normal melting temperature in series [2] turned out to be 88.64 ± 1.2 °C.

In the case of `COC(=O)C=Cc1ccc(O)c(OC)c1` [methyl 3-(4-hydroxy-3-methoxyphenyl)-2-propenoate], the “Molar enthalpy of transition or fusion” value in series [1] came out at 6.17 ± 0.43 kcal/mol. Also, in series [2], the Normal melting temperature turned out to be 62.56 ± 0.95 °C.
